Assay results from patent US20240316087A1, “Compositions And Methods For Inducing Apoptosis In Anaerobic Cells And Related Clinical Methods For Treating Cancer And Pathogenic Infections” (priority 2017, published 2024).

How the values were obtained:
[1] = system: circulating tumor cells (CTCs); experiment: Salicinium induction of apoptosis in cultured circulating tumor cells from patient samples; assay type: cell-based, human
From the text: Circulating tumor cells (CTCs) were isolated and characterized from patients with diverse diagnoses of cancer (including a wide variety of primary cancer types, with and without metastasis) using conventional flow cytometry modified to a multiparameter flow cytometric panel employing magnetic bead separation methods to characterize CTCs and isolate them from patient blood samples. In one exemplary modified procedure for isolating and characterizing CTCs from breast cancer patients, the flow cytometry panel included CD45-PE/Cy7, CD31-RPE, pan cytokeratin-PE/Cy5, c-met-PE and MUC-1(CD227)-FITC. CTCs were identified as CD45-/CD31-/PanCK+/MUC1+and metastatic cells as CD45-/c-met+. CTC isolation and cultivation utilized PBMCs from patients isolated using ficoll centrifugation methods and incubated with EpCAM magnetic beads to isolate the CTCs.
Isolated CTCs were cultured in serum free RPMI medium. […] Apoptosis quantification was based on observed cytoplasmic, nuclear and membrane changes diagnostic for apoptosis. In early stage of apoptosis, cells expand and become round, detach from adjacent cells or substrate and shrink. In the cytoplasm, the endoplasmic reticulum expands and turns vacuolar. In the nucleus, chromatin condenses in a crescent form around the nuclear membranes and becomes more basophilic. Eventually the nucleus fragments and cells convert to apoptotic bodies in containing fragmented nuclear and cellular materials. In vivo these apoptotic bodies are recognized and digested by phagocytes without raising inflammatory responses.
Data were analyzed using SPSS software, and T test methodology was used to compare data sets. A significance level of p<0.05 was considered statistically significant.

caspase-9 = experiment: Caspase-9 levels in Salicinium-treated versus control CTC samples; assay type: cell-based, human; conditions: diverse CTCs from different cancer types
From the text: Additional studies evaluated caspase levels in CTC samples treated or untreated with Salicinium. Caspases are major executants of apoptosis. […] During apoptosis these pro-enzymes are converted into active enzymes which mediate apoptosis in part by degrading intracellular proteins, for example cytoskeletal proteins, causing profound morphological changes of cells. Caspase-3 is activated by upstream caspases (caspase-8, caspase-9 or caspase-10), and in turn Caspase-3 activates endonuclease CAD (caspase activated DNase). […] In apoptosis, ICAD is cut by caspase-3 and release CAD, followed by rapid fragmentation of DNA.
Caspase-9 levels were compared in control CTC samples and Salicinium-treated CTC samples according to conventional assay methods.

NK cells = experiment: NK cell cancer-killing activity assay with immune cells from cancer patients; assay type: cell-based, human
Experimental: Immune cells were obtained from blood samples of 73 cancer patients. The capability of these immune cells to kill tumor cells in vitro was determined using a conventional cellular NK activity assay (Neri et al, Clin. Diagn. Lab. Immunol. 2001 November; 8(6): 1131-1135).
Control samples for these assays employed immune cells from patients diagnosed as having no detectable cancer. One exemplary test run (FIG. 4) compared nine patient samples side by side (samples 4 and 5 are controls, from patients with no cancer).

[2] = system: proliferating cancer and non-cancer cells and viral-infected cells; experiment: Salicinium uptake into proliferating and viral-infected cells; assay type: cell-based
[3] = system: alpha-N-acetylgalactosaminidase (nagalase); conditions: human, in vivo
[4] = 967 patient CTC samples, helicidum 0.5 mg/ml, 24 hours

4-(beta-D-allopyranosyloxy)-benzaldehyde [Salicinium]
patient CTC samples showing no detectable apoptotic activity [1, 4]: 18%
patient CTC samples showing statistically significant sensitivity to induction of apoptosis [1, 4]: 82%
CTC cells in sample undergoing apoptosis ([1]; majority of other cancer types tested, single exposure, 24-hour test period): 20-25%
CTC cells in sample undergoing apoptosis ([1]; more sensitive cancer types: lung, colorectal, sarcoma and renal cancer, single dose, 24 hours): 30-35%
caspase-9 levels in treated versus control CTC samples (caspase-9): potent induction of elevated caspase-9 levels
average increase in NK cell cancer-killing activity compared to basal (NK cells; cumulative samples (73 cancer patients), helicidum 0.5 mg/ml, 24 hours): 2.6 times
increase in NK cell cancer-killing activity above basal activity (NK cells; exemplary test run, FIG. 4, cancer patient samples, helicidum 0.5 mg/ml, 24 hours): from about 50% to 2- or 3-fold, up to about 4-fold or higher
increase in NK cell activity in control samples (NK cells; immune cells from patients with no detectable cancer, Salicinium present): little or no increase in NK cell activity
increase of Salicinium uptake compared to healthy cells ([2]; often): 2-5 times
increase of Salicinium uptake compared to healthy cells ([2]; routinely, GLUT-mediated and other glycome transport): 50-100%
increase of Salicinium uptake compared to healthy cells ([2]; up to): 10-15 times
median nagalase level [3]: 0.78 Units
patients with pronounced reductions in nagalase levels [3]: 83%
study patients with nagalase levels below 0.95 Units (normal range) [3]: 86%
study patients with nagalase levels below 1.0 units [3]: 72%
